This is an account of results in publication PMC10056443, “Derivatives of Amaryllidaceae Alkaloid Ambelline as Selective Inhibitors of Hepatic Stage of Plasmodium berghei Infection In Vitro” (Pharmaceutics, 2023).

SMILES strings stand for the structures. Where two headings read alike, the source gives them in different places.

Data set [1] relates to Huh-7 cell line. In words: Huh-7 cell confluency by alamarBlue assay during hepatic-stage test. The format is cell-based. The procedure:
(§1) Activity against the hepatic stage of P. berghei infection was assessed using the human hepatoma cell line Huh-7 (deposited at the Japanese Collection of Research Bioresources under JCRB0403). The protocol was previously comprehensively described by Prudêncio et al. and by Ploemen et al.. Briefly, cell culture medium consisted of 1640 RPMI medium supplemented with 10% v/v fetal calf serum, 1% v/v L-glutamine, 1% v/v nonessential amino acids, 1% v/v penicillin/streptomycin, and 10 mM HEPES, pH 7. Cells were seeded in 96-well plates at a density of 1 × 10^4 cells per well in 100 µL of culture medium and incubated at 37 °C with 5% CO2 for approximately 18 h. […] The culture medium was substituted by infection medium with diluted compounds 1 hour in advance of infection. Luciferase-expressing P. berghei sporozoites (PbA-LuciGFPcon spz) were freshly obtained through the dissection of salivary glands from infected female Anopheles stephensi mosquitoes. Sporozoites were added to the cells at 1:1 ratio, i.e., 1 × 10^4 sporozoites were added per well, and then subjected to centrifugation at 1800× g for 5 min. The plate was then incubated for 46 h at 37 °C with 5% CO2, at which time Huh-7 cell confluency was indirectly assessed by the alamarBlue assay (Invitrogen, Waltham, MA, USA), as reported in the manufacturer’s protocol. Parasite load was assessed 48 h post-infection by a bioluminescence assay, as reported by the manufacturer (Biotium, Fremont, CA, USA). GraphPad Prism 8 (GraphPad Software, Inc., La Jolla, CA, USA) was used to obtain IC50 values using nonlinear regression analysis to fit the dose-response curves normalized results.
Background: Alamar Blue is a resazurin reagent that responds to reducing activity.

Data set [2] concerns hepatic stage of P. berghei. The experiment in a line: In vitro activity against P. berghei hepatic stages (luciferase-expressing sporozoites in Huh-7 cells, bioluminescence). The format is cell-based, Plasmodium berghei. The conditions noted are these: Plasmodium berghei; for activity at 1 µM / activity at 10 µM: Huh-7, 48 h, DMSO = 100, read-out: INFECTION Ø screening. Here is the method:
as §1, with “Briefly, cell culture medium consisted of 1640 RPMI medium supplemented with 10% v/v fetal calf serum, 1% v/v L-glutamine, 1% v/v nonessential amino acids, 1% v/v penicillin/streptomycin, and 10 mM HEPES, pH 7.” left out

The subject of data set [3] is HepG2 cells. The experiment in a line: Cytotoxicity assessment in vitro (MTT assay). The format is cell-based. Here is the method:
(§2) HepG2 cells of human hepatocellular carcinoma (ATCC HB-8065; passage 20–25), purchased from Health Protection Agency Culture Collections (ECACC, Salisbury, UK), were cultured in Minimum Essential Medium Eagle supplemented with 10% v/v fetal bovine serum and 1% v/v L-glutamine solution (Sigma-Aldrich, St. Louis, MO, USA) at 37 °C in a humidified atmosphere containing 5% CO2. For passaging, the cells were treated with trypsin/EDTA (Sigma-Aldrich, St. Louis, MO, USA) at 37 °C and then harvested. For the cytotoxicity evaluation, the cells treated with the test substances were used, while untreated HepG2 cells served as a control group. The cells were seeded in a 96-well plate at a density of 1 × 10^4 cells per well and incubated for 24 h. All tested compounds were dissolved in DMSO to prepare 10 mM stock solutions and diluted to the desired concentration just before the cell treatment. Cytotoxicity of all studied derivatives was screened at 10 μM concentration, and all samples were measured in triplicates. Positive and negative controls were also included. Plates were incubated for 24 h in a humidified atmosphere containing 5% CO2 at 37 °C. After the incubation, a solution of thiazolyl blue tetrazolium bromide (Sigma-Aldrich, St. Louis, MO, USA) in RPMI 1640 medium without phenol red (BioTech, Prague, Czech Republic) was added and incubated for 3 h in a humidified atmosphere containing 5% CO2 at 37 °C. Afterwards, formazan crystals were dissolved in DMSO, and the absorbance of samples was recorded at 570 nm (Synergy Neo2 Multi-Mode Reader NEO2SMALPHAB; BioTek, Winooski, VT, USA).
On the technique in general: Tetrazolium dyes change colour on reduction, which living cells bring about.

A short description of data set [4]: Cytotoxicity assessment in vitro (MTT assay). The conditions noted are these: human. It is filed as cell-based. The procedure:
as §2

Where [5] appears, read: Huh-7, replicate 1, unit (Table 1: µM), read-out: Antiplasmodial activity - IC50 determination, 1. measurement.
Where [6] appears, read: Huh-7, replicate 2, unit (Table 1: µM), read-out: Antiplasmodial activity - IC50 determination, 2. measurement.
Setting [7] is: Huh-7, replicate 3, unit (Table 1: µM), read-out: Antiplasmodial activity - IC50 determination, 3. measurement.
Setting [8] is: hepatic stage, Huh-7 cells, parasite load 48 h post-infection, read-out: IC50 P. berghei.
Setting [9] is: at 1 μM, DMSO = 100, in % (unit assumed).
Where [10] appears, read: at 10 μM, DMSO = 100, in % (unit assumed).
The mark [11] stands for this setting: c = 10 µM, 24 h, MTT, read-out: HepG2 % of cell viability compared to non-treated control (100%).

By IC50 is commonly meant the point on the concentration scale where inhibition reaches its midpoint. Broadly, the viability is the share of living cells, or the viability signal relative to a control. Regarding `COc1c2c(cc3c1OCO3)[C@]13C=C[C@H](OC)C[C@H]1N(C2)C[C@H]3OC(=O)c1cccc(C)c1` [28f, 11-O-(3-Methylbenzoyl)ambelline], the “CELL CONFLUENCY Ø screening” value in data set [1] (human, 46 h, 1 µM, pH 7) worked out at 118. Further, in data set [1] (human, 46 h, 10 µM, pH 7), the “CELL CONFLUENCY Ø screening” value turned out to be 93.35. Also, in data set [2], the activity at 1 µM is 15.1% and the activity at 10 µM was found to be 0.306%. In addition, in data set [2] (setting [5]), the half-maximal inhibitory concentration (IC50) came to 0.185 µM. Also, in data set [2] (setting [6]), the IC50 was determined as 0.41 µM. In data set [2] (setting [7]), the 50% inhibitory concentration (IC50) came out at 0.357 µM. Also, the IC50 in data set [2] (setting [8]) stood at 0.317 ± 0.118 µM. In data set [3] (human, 24 h, 10 µM), the “1. screening of cytotoxic potential, HepG2 cell line” value (“1. screening of cytotoxic potential” below) is 76.64; the “2. screening of cytotoxic potential, HepG2 cell line” value (“2. screening of cytotoxic potential” for short) was determined as 74.3; the “3. screening of cytotoxic potential, HepG2 cell line” value (from here on “3. screening of cytotoxic potential”) is 74.27; the “Ø screening, HepG2 (sheet Graphs)” value was determined as 75.07. The viability at 24 h, 10 µM in data set [4] is 75 ± 1%.
With `COc1ccccc1C(=O)O[C@@H]1CN2Cc3c(cc4c(c3OC)OCO4)[C@@]13C=C[C@H](OC)C[C@@H]23` [28i, 11-O-(2-Methoxybenzoyl)ambelline], the “CELL CONFLUENCY Ø screening” value in data set [1] (human, 46 h, 1 µM, pH 7) is 140.5. The “CELL CONFLUENCY Ø screening” value in data set [1] (human, 46 h, 10 µM, pH 7) is listed as 135.7. Moreover, in data set [2], the activity at 1 µM worked out at 60.6% and the activity at 10 µM worked out at 1.65%. In addition, in data set [2] (setting [5]), the IC50 worked out at 1.53 µM. In addition, in data set [2] (setting [6]), the IC50 is 2.98 µM. For the same compound, the IC50 in data set [2] (setting [7]) amounted to 2.7 µM. In addition, the IC50 in data set [2] (setting [8]) was 2.4 ± 0.77 µM. For the same compound, in data set [3] (human, 24 h, 10 µM), the “1. screening of cytotoxic potential” value worked out at 85.49; the “2. screening of cytotoxic potential” value stood at 83.85; the “3. screening of cytotoxic potential” value is 87.77; the “Ø screening, HepG2 (sheet Graphs)” value stood at 85.7. The viability at 24 h, 10 µM in data set [4] came out at 86 ± 2%.
As for `COc1cccc(C(=O)O[C@@H]2CN3Cc4c(cc5c(c4OC)OCO5)[C@@]24C=C[C@H](OC)C[C@@H]34)c1` [28j, 11-O-(3-Methoxybenzoyl)ambelline], the results for the “CELL CONFLUENCY Ø screening” value in data set [1] (setting [9]) and in data set [1] (setting [10]) were 109.9 and 81.02, respectively. Besides, in data set [2], the activity at 1 µM stood at 10.8%. Besides, the activity at 10 µM in data set [2] was determined as 0.612%. Moreover, the half-inhibitory concentration (IC50) worked out at 0.19 µM in data set [2] (setting [5]), 0.362 µM in data set [2] (setting [6]), 0.232 µM in data set [2] (setting [7]) and 0.261 ± 0.09 µM in data set [2] (setting [8]). Besides, the “Ø screening, HepG2 (sheet Graphs)” value in data set [3] (c = 10 μM, DMSO = 100, in %) is 80.77. Also, the “1. screening of cytotoxic potential” value in data set [3] (c = 10 μM, replicate 1, in %) is listed as 69.18. Moreover, in data set [3] (c = 10 μM, replicate 2, in %), the “2. screening of cytotoxic potential” value was 85.98. For the same compound, the “3. screening of cytotoxic potential” value in data set [3] (c = 10 μM, replicate 3, in %) stood at 87.15. Also, the viability at 24 h, 10 µM in data set [4] (setting [11]) worked out at 81 ± 10%.
Regarding `COc1ccc(C(=O)O[C@@H]2CN3Cc4c(cc5c(c4OC)OCO5)[C@@]24C=C[C@H](OC)C[C@@H]34)cc1` [28k, 11-O-(4-Methoxybenzoyl)ambelline], the “CELL CONFLUENCY Ø screening” value turned out to be 107.6 in data set [1] (setting [9]) and 76.48 in data set [1] (setting [10]). Further, the activity at 1 µM in data set [2] was 19.9%. In data set [2], the activity at 10 µM worked out at 0.872%. Besides, the IC50 in data set [2] (setting [5]) was found to be 0.446 µM; in data set [2] (setting [6]), 0.456 µM; in data set [2] (setting [8]), 0.451 ± 0.007 µM. The “Ø screening, HepG2 (sheet Graphs)” value in data set [3] (c = 10 μM, DMSO = 100, in %) is listed as 87.88. In addition, the “1. screening of cytotoxic potential” value in data set [3] (c = 10 μM, replicate 1, in %) came to 88.02. The “2. screening of cytotoxic potential” value in data set [3] (c = 10 μM, replicate 2, in %) is 89.64. The “3. screening of cytotoxic potential” value in data set [3] (c = 10 μM, replicate 3, in %) is reported as 85.98. For the same compound, in data set [4] (setting [11]), the viability at 24 h, 10 µM was determined as 88 ± 2%.
As to `COc1ccc(C(=O)O[C@@H]2CN3Cc4c(cc5c(c4OC)OCO5)[C@@]24C=C[C@H](OC)C[C@@H]34)cc1OC` [28l, 11-O-(3,4-Dimethoxybenzoyl)ambelline], in data set [1] (human, 46 h, 1 µM, pH 7), the “CELL CONFLUENCY Ø screening” value was found to be 85.82. Further, the “CELL CONFLUENCY Ø screening” value in data set [1] (human, 46 h, 10 µM, pH 7) was determined as 70.05. Also, in data set [2], the activity at 1 µM is 1.65% and the activity at 10 µM is 0.301%. In addition, the IC50 in data set [2] (setting [5]) was 0.16 µM. Also, the IC50 in data set [2] (setting [6]) came to 0.135 µM. In addition, the IC50 in data set [2] (setting [8]) is 0.147 ± 0.018 µM. In data set [3] (human, 24 h, 10 µM), the “1. screening of cytotoxic potential” value is 106.14; the “2. screening of cytotoxic potential” value was determined as 89.55; the “3. screening of cytotoxic potential” value stood at 102.39; the “Ø screening, HepG2 (sheet Graphs)” value is 99.36. Besides, the viability at 24 h, 10 µM in data set [4] is 99 ± 9%.
